Source: patent US10363239B2, “Method for inhibiting growth of cancer cells” (Pain Therapeutics, Inc., priority 2013, dated 2019)
Where two headings read alike, the source gives them in different places.

How the values were obtained:
[1] = target: FLNA pentapeptide of SEQ ID NO: 1 (Bn-VAKGL) (Homo sapiens, UniProt P21333); assay: FITC-NLX-based FLNA screening assay (inhibition of FITC-naloxone binding to Bn-VAKGL on streptavidin plates); conditions: 10 nM FITC-NLX
mu opiate receptor (MOR) = assay: MOR agonist activity using [35S]GTPγS binding assay in striatal membranes; assay type: biochemical; conditions: for MOR agonist activity ([35S]GTPγS binding), FLNA-Binding Compound as Agonist 1 μM + BFNA: 1 μM compound + 1 μM β-funaltrexamine
In short: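 Striatal membranes (200 μg) were preincubated 5 min at 30 °C in HEPES pH 7.5 with 100 mM NaCl, 1 mM MgCl2 and 0.5 nM [35S]GTPγS, then 5 min more with 0.1–10 μM compound. Gαo was immunoprecipitated and bound radioactivity counted by scintillation.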

[2] = FLNA-binding compound 0.01 μM, read-out: Percent Binding Inhibition
[3] = FLNA-binding compound 0.1 μM, read-out: Percent Binding Inhibition
[4] = FLNA-binding compound 1 μM, read-out: Percent Binding Inhibition
[5] = 0.1 μM compound relative to DAMGO
[6] = 1 μM compound + BFNA relative to DAMGO + BFNA
[7] = 1 μM compound relative to DAMGO
[8] = read-out: Percent Binding Inhibition, FLNA-binding compound 0.01 μM
[9] = read-out: Percent Binding Inhibition, FLNA-binding compound 0.1 μM
[10] = read-out: Percent Binding Inhibition, FLNA-binding compound 1 μM
[11] = Series B, 0.1 μM compound, relative to DAMGO
[12] = Series B, 0.1 μM compound, [35S]GTPγS binding to Gαo, striatal membranes
[13] = Series B, 1 μM compound + 1 μM β-FNA
[14] = Series B, 1 μM compound + β-FNA, relative to DAMGO + BFNA
[15] = Series B, 1 μM compound, relative to DAMGO
[16] = Series B, 1 μM compound, [35S]GTPγS binding to Gαo, striatal membranes
[17] = Series C-1, 0.1 μM compound, relative to DAMGO
[18] = Series C-1, 0.1 μM compound, [35S]GTPγS binding to Gαo, striatal membranes
[19] = Series C-1, 1 μM compound + 1 μM β-FNA
[20] = Series C-1, 1 μM compound + β-FNA, relative to DAMGO + BFNA
[21] = Series C-1, 1 μM compound, relative to DAMGO
[22] = Series C-1, 1 μM compound, [35S]GTPγS binding to Gαo, striatal membranes

| Structure (SMILES) | inhibition at 0.01 µM [1, 2] [%] | inhibition at 0.1 µM [1, 3] [%] | inhibition at 1 µM [1, 4] [%] | MOR agonist activity ([35S]GTPγS binding), FLNA-Binding Compound as Agonist 0.1 μM (mu opiate receptor (MOR); 0.1 μM compound) [%] | % DAMGO (0.1 μM) (mu opiate receptor (MOR); [5]) [%] | MOR agonist activity ([35S]GTPγS binding), FLNA-Binding Compound as Agonist 1 μM (mu opiate receptor (MOR); 1 μM compound) [%] | MOR agonist activity ([35S]GTPγS binding), FLNA-Binding Compound as Agonist 1 μM + BFNA (mu opiate receptor (MOR)) [%] | % DAMGO + BFNA (mu opiate receptor (MOR); [6]) [%] | % DAMGO (1 μM) (mu opiate receptor (MOR); [7]) [%] | inhibition at 0.01 µM [1, 8] [%] | inhibition at 0.1 µM [1, 9] [%] | inhibition at 1 µM [1, 10] [%] | % DAMGO (0.1 μM) (mu opiate receptor (MOR); [11]) [%] | MOR agonist activity, percent [35S]GTPγS binding at the stated compound concentration (mu opiate receptor (MOR); [12]) [%] | MOR agonist activity, percent [35S]GTPγS binding at the stated compound concentration (mu opiate receptor (MOR); [13]) [%] | % DAMGO + BFNA (mu opiate receptor (MOR); [14]) [%] | % DAMGO (1 μM) (mu opiate receptor (MOR); [15]) [%] | MOR agonist activity, percent [35S]GTPγS binding at the stated compound concentration (mu opiate receptor (MOR); [16]) [%] | further results |
| --- | --- | --- | --- | --- | --- | --- | --- | --- | --- | --- | --- | --- | --- | --- | --- | --- | --- | --- | --- |
| COc1ccc(OCC(O)CN2CCOc3ccccc32)cc1 (stereo not drawn) [Compound A0076] | 36.1 | 40 | 44.9 | 79.8 | 46.4 | 172.6 | 41.2 | 119.4 | 78.6 | – | – | – | – | – | – | – | – | – | – |
| CC1CCC(C(C)C)C(OCC(O)CN2CCCCC2=O)C1 (stereo not drawn) [Compound A0036] | 45.6 | 50.1 | 54.4 | 144.1 | 73.4 | 167.5 | 63.2 | 85.5 | 60.7 | – | – | – | – | – | – | – | – | – | – |
| COc1c2c(cc3c1C(CC(=O)Cc1ccccc1C)N(C)CC3)OCO2 (stereo not drawn) [Compound B0053] | – | – | – | – | – | – | – | – | – | 33.1 | 37.3 | 47.6 | 94.8 | 160.2 | 134.3 | 809.0 | 137.0 | 299.8 | – |
| COc1cc(F)ccc1C(=O)CC1c2c(cc3c(c2OC)OCO3)CC[N+]1(C)C (stereo not drawn) [Compound B0007] | – | – | – | – | – | – | – | – | – | 43.6 | 53.1 | 57.3 | 95.3 | 168.3 | 64.5 | 98.2 | 86.1 | 223.3 | – |
| CN(C)c1cccc(OCC(O)CN2CCc3ccccc3C2)c1 (stereo not drawn) [Compound A0050] | 42.9 | 49.8 | 52.1 | 151.0 | 77.0 | 189.3 | 81.0 | 109.6 | 68.6 | – | – | – | – | – | – | – | – | – | – |
| CS(=O)(=O)c1ccc(S(=O)(=O)N2CCC3(CC2)OCCN3S(=O)(=O)c2ccc(S(C)(=O)=O)cc2)cc1 [Compound C0009] | – | – | – | – | – | – | – | – | – | 41.7 | 49 | 53.9 | – | – | – | – | – | – | % DAMGO (0.1 μM) (mu opiate receptor (MOR); [17]): 85.1%; Concentration of FLNA-Binding Compound as Agonist 0.1 μM (mu opiate receptor (MOR); [18]): 146.3%; Concentration of FLNA-Binding Compound as Agonist 1 μM + BFNA (mu opiate receptor (MOR); [19]): 26.4%; % DAMGO + BFNA (mu opiate receptor (MOR); [20]): 41.2%; % DAMGO (1 μM) (mu opiate receptor (MOR); [21]): 92.6%; Concentration of FLNA-Binding Compound as Agonist 1 μM (mu opiate receptor (MOR); [22]): 256.2% |
| O=S(=O)(c1ccc(-c2ccccc2)cc1)N1CCC2(CC1)OCCN2S(=O)(=O)c1ccc(-c2ccccc2)cc1 [Compound C0010] | – | – | – | – | – | – | – | – | – | 39.8 | 42.7 | 47.1 | – | – | – | – | – | – | % DAMGO (0.1 μM) (mu opiate receptor (MOR); [17]): 80.7%; Concentration of FLNA-Binding Compound as Agonist 0.1 μM (mu opiate receptor (MOR); [18]): 136.5%; Concentration of FLNA-Binding Compound as Agonist 1 μM + BFNA (mu opiate receptor (MOR); [19]): 89.1%; % DAMGO + BFNA (mu opiate receptor (MOR); [20]): 135.0%; % DAMGO (1 μM) (mu opiate receptor (MOR); [21]): 114.9%; Concentration of FLNA-Binding Compound as Agonist 1 μM (mu opiate receptor (MOR); [22]): 307.0% |
| COc1ccc(C(=O)CC2c3c(cc4c(c3OC)OCO4)CC[N+]2(C)C)cc1 (stereo not drawn) [Compound B0024] | – | – | – | – | – | – | – | – | – | 34.8 | 43.4 | 47.7 | 93.2 | 155.8 | 20.2 | 58.2 | 116.7 | 285.9 | – |
